The values below come from patent US20120276049A1, “Methods and compositions for amelioration of autoimmune disease using fusion proteins of anti-dendritic cell receptor antibody to peptide sequences” (President and Fellows of Harvard College, priority 2009, published 2012).

The subject of data set [1] is relapsing-remitting forms of MS. The settings on record: cited from earlier work.
The conditions of data set [2]: in vivo; cited from earlier work.
Data set [3] deals with DEC205 receptor (mouse), on splenic CD11c+ dendritic cells of SJL mice (mouse) (UniProt Q60767). The data set can be described thus: cell-based or functional assay.
For data set [4], the system named is PLP139-151-induced EAE in recipient SJL mice. The data set is described as follows: Adoptive transfer of CD4+ T cells from preimmunized SJL mice, then EAE induction in recipients. It is filed as in vivo, mouse. As to conditions: donors coimmunized with 500 μg copolymer. How it is done: SJL mice were preimmunized on day 10 i.p. with each of 1 μg fusion monoclonal antibodies: DEC205-PLP-specific (closed diamonds; αDEC205/PLP mAb CD4^+ T cells) or control GL117-PLP-specific (closed squares; GL117/PLP mAb CD4^+ T cells), or control treatment with 500 μg of the synthetic amino acid copolymer (poly (F,Y,A,K)n; closed light gray circles; PLP139-151+FYAK CD4^+ T cells) or no treatment (closed triangles). The 5×10^6 CD4+ T cells, enriched splenocytes obtained from preimmunized mice, were adoptively transferred i.v. into the tail veins of non-treated mice, followed by immunization on day 1 with 75 μg of PLP139-151 in CFA and PT i.v. the following day. Controls received PBS injections. Mean disease scores of five mice/group are shown. […]
SJL mice herein were preimmunized at day 10 i.p. with 1 μg of DEC205-PLP specific monoclonal antibodies (closed diamonds; αDEC205/PLP mAb) only or not treated (closed triangles) in a control group. Mice were monitored for clinical signs of EAE for 30 days. […]
SJL/J mice were preimmunized (day 10, 15, or 20) with 1 μg i.p. of fusion monoclonal antibodies (DEC205-PLP specific monoclonal antibodies, DEC205-HA specific monoclonal antibodies, DEC205 specific monoclonal antibodies alone, or GL117-PLP specific monoclonal antibodies). […] The mice were scored daily for 30 days. […]

For data set [5], the system named is patients with secondary progressive MS. The settings on record: weekly s.c. 3 or 10 mg; 50 patients; cited from earlier work.
Data set [6] relates to Experimental Autoimmune Encephalomyelitis (EAE, the mouse model of MS). The settings on record: compared with Copaxone; cited from earlier work.

Chain of UniProt Q60767 (Q60767 28-1723): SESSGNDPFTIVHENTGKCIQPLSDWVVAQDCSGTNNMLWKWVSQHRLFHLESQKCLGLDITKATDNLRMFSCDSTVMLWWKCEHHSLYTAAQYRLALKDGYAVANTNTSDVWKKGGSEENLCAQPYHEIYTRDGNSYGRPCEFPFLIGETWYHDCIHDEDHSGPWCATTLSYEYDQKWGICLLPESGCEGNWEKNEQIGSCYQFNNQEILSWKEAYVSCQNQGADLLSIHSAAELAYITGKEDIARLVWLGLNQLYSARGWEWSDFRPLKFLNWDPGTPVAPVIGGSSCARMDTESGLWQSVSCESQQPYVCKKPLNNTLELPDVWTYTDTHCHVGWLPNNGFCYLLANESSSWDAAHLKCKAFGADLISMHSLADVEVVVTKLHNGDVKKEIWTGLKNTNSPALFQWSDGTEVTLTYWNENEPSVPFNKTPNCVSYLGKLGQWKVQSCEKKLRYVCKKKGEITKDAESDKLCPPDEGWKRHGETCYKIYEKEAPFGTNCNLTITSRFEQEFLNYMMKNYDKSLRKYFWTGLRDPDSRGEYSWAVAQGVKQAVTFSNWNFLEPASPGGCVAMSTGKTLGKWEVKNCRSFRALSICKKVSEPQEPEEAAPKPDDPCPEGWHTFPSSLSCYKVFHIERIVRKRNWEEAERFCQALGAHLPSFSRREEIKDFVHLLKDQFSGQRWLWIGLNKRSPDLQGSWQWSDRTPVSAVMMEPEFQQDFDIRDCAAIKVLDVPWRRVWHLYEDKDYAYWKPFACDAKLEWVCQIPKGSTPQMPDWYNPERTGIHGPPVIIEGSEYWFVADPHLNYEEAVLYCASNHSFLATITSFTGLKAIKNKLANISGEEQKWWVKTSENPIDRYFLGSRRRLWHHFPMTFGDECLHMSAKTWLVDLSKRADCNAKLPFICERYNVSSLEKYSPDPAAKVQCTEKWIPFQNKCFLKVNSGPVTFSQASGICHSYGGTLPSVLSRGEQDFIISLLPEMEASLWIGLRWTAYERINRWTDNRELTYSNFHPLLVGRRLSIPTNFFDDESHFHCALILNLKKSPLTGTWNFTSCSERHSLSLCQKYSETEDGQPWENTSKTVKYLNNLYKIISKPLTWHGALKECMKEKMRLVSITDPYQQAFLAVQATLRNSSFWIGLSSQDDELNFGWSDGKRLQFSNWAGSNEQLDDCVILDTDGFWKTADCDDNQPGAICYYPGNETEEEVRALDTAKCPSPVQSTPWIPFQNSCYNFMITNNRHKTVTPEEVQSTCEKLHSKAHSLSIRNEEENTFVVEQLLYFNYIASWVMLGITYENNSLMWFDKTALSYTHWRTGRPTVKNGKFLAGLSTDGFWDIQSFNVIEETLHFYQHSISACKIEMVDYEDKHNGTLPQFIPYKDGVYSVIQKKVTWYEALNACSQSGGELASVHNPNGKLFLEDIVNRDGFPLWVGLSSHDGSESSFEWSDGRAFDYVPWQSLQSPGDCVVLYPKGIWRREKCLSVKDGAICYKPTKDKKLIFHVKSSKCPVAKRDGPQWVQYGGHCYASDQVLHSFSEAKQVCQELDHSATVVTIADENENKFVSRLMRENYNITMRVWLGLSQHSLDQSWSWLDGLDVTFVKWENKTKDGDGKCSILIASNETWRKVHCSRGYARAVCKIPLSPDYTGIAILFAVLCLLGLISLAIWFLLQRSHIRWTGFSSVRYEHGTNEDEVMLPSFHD

With poly(Y, E, A, K)n [Copaxone ®], in data set [1], the “reduction of relapse rate” value was 30%. The side effects result in data set [2] is given as “severe injection”.
In turn, “anti-DEC205-PLP139-151 fusion monoclonal antibody (cloned NLDC-145 with PLP139-151 fused to the C terminus of the Ig heavy chain)” came in with an IFN-γ secretion in day 3 coculture supernatants (cytokine bead array) in data set [3] of 10 fold.
In the case of poly (F,Y,A,K)n [FYAK], in data set [4], the “EAE induction in recipients of CD4+ T cells” value is recorded as “efficiently prevented EAE induction”. For the same substance, the “number of Gadolinium-enhancing lesions” value in data set [5] is reported as “severely reduce”. Moreover, the “effectiveness in treatment of EAE” value in data set [6] is “far more effective than Copaxone”.
